Key:
Test in all cases: relative viability (nuclei count vs DMSO), 5 days (fraction); higher = more cells survive
Carboplatin + Linsitinib = compound: C1CC(C1)(C(=O)O)C(=O)O.[NH2-].[NH2-].[Pt+2] [Carboplatin] + C[C@]1(O)C[C@@H](c2nc(-c3ccc4ccc(-c5ccccc5)nc4c3)c3c(N)nccn32)C1 [Linsitinib] (partner 1 µM)
Procedure, shortened: (§1)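 Lung cancer cell lines in 1536-well plates got either a single drug or a fixed anchor-drug dose together with five library-drug doses (not always all listed) in √10 steps, by pin tool, on the day after seeding. Nuclei were counted after 5 days, and relative viability is the treated-to-vehicle ratio of nuclei counts. Values are medians of duplicate plates.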

GSK126 + Decitabine = compound: CC[C@H](C)N1C=C(C2=C(C=C(C=C21)C3=CN=C(C=C3)N4CCNCC4)C(=O)NCC5=C(C=C(NC5=O)C)C)C [GSK126] + Nc1ncn([C@H]2C[C@H](O)[C@@H](CO)O2)c(=O)n1 [Decitabine] (partner 2 µM)
Procedure, shortened: as §1

GSK126 + Foretinib = compound: CC[C@H](C)N1C=C(C2=C(C=C(C=C21)C3=CN=C(C=C3)N4CCNCC4)C(=O)NCC5=C(C=C(NC5=O)C)C)C [GSK126] + COc1cc2c(Oc3ccc(NC(=O)C4(C(=O)Nc5ccc(F)cc5)CC4)cc3F)ccnc2cc1OCCCN1CCOCC1 [Foretinib] (partner 0.25 µM)
Procedure, shortened: as §1

MLN4924 + Alpelisib = compound: NS(=O)(=O)OC[C@@H]1C[C@@H](n2ccc3c(N[C@H]4CCc5ccccc54)ncnc32)C[C@@H]1O [MLN4924] + Cc1nc(NC(=O)N2CCC[C@H]2C(N)=O)sc1-c1ccnc(C(C)(C)C(F)(F)F)c1 [Alpelisib] (partner 2 µM)
Procedure, shortened: as §1

| Cell Line | relative viability (Carboplatin + Linsitinib; first compound 0.08 µM) | relative viability (Carboplatin + Linsitinib; first compound 0.253 µM) | relative viability (Carboplatin + Linsitinib; first compound 0.8 µM) | relative viability (Carboplatin + Linsitinib; first compound 2.53 µM) | relative viability (Carboplatin + Linsitinib; first compound 8 µM) | relative viability (GSK126 + Decitabine; first compound 0.08 µM) | relative viability (GSK126 + Decitabine; first compound 0.253 µM) | relative viability (GSK126 + Decitabine; first compound 0.8 µM) | relative viability (GSK126 + Decitabine; first compound 2.53 µM) | relative viability (GSK126 + Decitabine; first compound 8 µM) | relative viability (GSK126 + Foretinib; first compound 0.08 µM) | relative viability (GSK126 + Foretinib; first compound 0.253 µM) | relative viability (GSK126 + Foretinib; first compound 0.8 µM) | relative viability (GSK126 + Foretinib; first compound 2.53 µM) | relative viability (GSK126 + Foretinib; first compound 8 µM) | relative viability (MLN4924 + Alpelisib; first compound 0.04 µM) | relative viability (MLN4924 + Alpelisib; first compound 0.1265 µM) | relative viability (MLN4924 + Alpelisib; first compound 0.4 µM) | relative viability (MLN4924 + Alpelisib; first compound 1.265 µM) | relative viability (MLN4924 + Alpelisib; first compound 4 µM) |
| --- | --- | --- | --- | --- | --- | --- | --- | --- | --- | --- | --- | --- | --- | --- | --- | --- | --- | --- | --- | --- |
| NCI-H1755 | 1.12 | 0.947 | 1.03 | 1.02 | 0.952 | 0.696 | 0.68 | 0.684 | 0.662 | 0.714 | 1.02 | 0.975 | 0.962 | 0.924 | 0.968 | 0.835 | 0.638 | 0.475 | 0.172 | 0.145 |
| NCI-H647 | 1.41 | 1.24 | 1.11 | 0.932 | 0.503 | 0.445 | 0.356 | 0.484 | 0.383 | 0.437 | 1.21 | 1.23 | 0.971 | 1.45 | 1.26 | 1.04 | 0.653 | 0.18 | 0.0485 | 0.0516 |
| NCI-H1651 | 0.918 | 1.06 | 0.82 | 0.9 | 0.509 | 0.64 | 0.634 | 0.606 | 0.772 | 0.624 | 0.736 | 0.848 | 0.868 | 0.702 | 0.977 | 1.11 | 0.961 | 0.793 | 0.362 | 0.168 |
| NCI-H1437 | 1.06 | 1.02 | 0.95 | 0.859 | 0.876 | 0.584 | 0.569 | 0.536 | 0.499 | 0.527 | 1.32 | 1.29 | 1.14 | 1.26 | 1.27 | 0.905 | 0.977 | 0.755 | 0.422 | 0.101 |

Reference: the supplement of paper PMC10307832
